Reference: patent publication US10905757B2, “Cross-reactive T cell epitopes of HIV, SIV, and FIV for vaccines in humans and cats” (priority 2012, dated 2021)
“Also recorded” adds a separate entry of the source. Marks after values point to notes of the source that are not given here. Ends that are not written are not given here.

What was measured:
Assay type in all cases: cell-based, human
PBMC from HIV+ subjects = experiment: IFNγ ELISpot, PBMC from HIV+ subjects; settings: for IFNγ (positive/total): positive responses over total tested, F3 responders (H3 responders for H3-3)
Experimental: 1.0×10^5-2.0×10^5 PBMCs were stimulated with peptides (15 μg peptide/well) in ELISpot plates for 18 hours in AIMS V medium (at 10% normal human serum). The spots were counted with an ELISpot reader and adjusted to spot forming units (SFU) per 10^6 cells.
Positive reactivity was defined at ≥70 SFU/10^6 cells after subtracting the background derived from non-specific peptide control or media control, and the average of 3 HIV-1 negative controls (<30 SFU/10^6 cells).
ELISpot assays. Enzyme-linked immunosorbent spot assays (ELISpot) for IFNγ (R&D Systems, Minneapolis, Minn.) were performed with AIM V medium containing 5% heat-inactivated (56° C., 30 min) human serum as previously described (Abbott et al. (2012)). The PBMC from HIV+ subjects were stimulated with either peptide pool (4-5 consecutive peptides per pool at 5 μg per peptide) or individual peptide (15 μg/well). The peptides were 11-16 aa in length with 8-10 aa overlap. The results were analyzed with an ELISpot reader (MVS Pacific LLC, Minneapolis, Minn.) and adjusted to spot forming units (SFU) per 10^6 cells, after subtraction of the average medium control for each subject. The PBMC from HIV+ subjects were stimulated with T-cell mitogen, phytohemaglutinin A (PHA, 5 μg/mL), as positive control. At a positive threshold of 70 SFU, HIV− subjects had no substantial IFNγ responses (>50 SFU) to HIV and FIV peptide pools.
ELISpot assays. Human enzyme-linked immunosorbent spot assays (ELISpot) (R&D Systems, Cat #XEL285) which measure IFNγ production were performed (Abbott et al. 2011). The positive threshold for human IFNγ responses was >50 spot forming units (SFU)/10^6 cells. The final value for each subject was derived after subtracting the result of each HIV^+ subject with the media control followed by subtraction with the average response of the HIV^− subjects which was rarely more than 10 SFU.

[1] = system: CD3+CD8+ T cells from HIV+ subjects; experiment: CFSE-proliferation, CD3+CD8+ T cells from HIV+ subjects; settings: for CD8^+ T Proliferation (positive/total): positive responses over total tested, F3 responders (H3 responders for H3-3)
Experimental: (§1) 2×10^5-5×10^5 CFSE labeled PBMCs were incubated with 15-20 μg of peptides in 600 μL of RPMI media with 10% FBS for 5 days at 37° C. (5% CO2). After harvesting, they were labeled with allophycocyanin (APC), APC-H7, and Pacific Blue labeled monoclonal antibodies (MAb) to human CD3, CD4, and CD8, respectively and analyzed for T-cell proliferation by flow cytometry using BD LSRII (BD Biosciences). The proliferating CD4^+ or CD8^+ T cell populations were defined from the CD3^+ cell population as either CD3^+CD8^+ or CD3^+CD4^+T cells (mutually exclusive) with low CFSE (CFSE^low) staining.
(§2) Flow cytometry (FACS) for carboxyfluoresein diacetate succinimide ester (CFSE)-proliferation and intracellular cytotoxin staining (ICS). The CFSE-proliferation analysis was performed on PBMC according to the manufacturer's protocol (Invitrogen, Carlsbad, Calif.) and processed as previously described (Lichterfeld et al. (2004)). Modifications consisted of using 2.0-5.0×10^5 CFSE-labeled cells stimulated for 5 days (37° C., 5% CO^2) with 30 μg/well of total peptides in a pool (15 μg/well for individual peptide, Table 10) or 5 μg/mL PHA in AIM V medium containing 25 μg/mL of gentamycin and 10% heat-inactivated human serum. Subsequently these cells were harvested and labeled with the LIVE/DEAD fixable yellow dye (Invitrogen) and then treated 5 min with anti-CD16/CD32 antibody (Biolegend, San Diego, Calif.) for blocking non-specific binding before phenotype-specific antibodies. The following antibodies were used for the CFSE-proliferation analysis: anti-CD4 APC, anti-CD3 APC-H7, and anti-CD8 Pacific Blue (BD Biosciences, San Jose, Calif.).
(§3) In both analyses, 1.0-2.0×10^4 cells were fixed in phosphate-buffered saline (PBS) containing 2% paraformaldehyde and analyzed on BD LSRII using […] Software (BD Biosciences), with a positive threshold of 3% CFSE^low for CFSE-proliferation and 1% T cells expressing cytotoxin for ICS. The final value for each subject was derived after subtraction of the subject's medium control and the average value of peptide-stimulated cells from uninfected control subjects.
(§4) Flow cytometry (FACS) for measuring CFSE-proliferation and intracellular cytokine staining (ICS). Carboxyfluorescein diacetate succinimide ester (CFSE)-proliferation analysis was performed according to the manufacturer's protocol (Invitrogen) and processed as previously described (Lichterfeld et al. 2004) using the following modification: 2.5-5.0×10^5 CFSE-labeled PBMC stimulated for 4-5 days (37° C., 5% CO2) with 15-30 μg of peptides in culture media (AIM V medium, 25 μg/mL gentamycin, and 10% heat-inactivated fetal bovine serum). The ICS analysis was performed as previously described (Horton et al. 2007; Pattacini et al. 2012).
(§5) The antibodies used for the proliferation analysis consisted of anti-CD4 allophycocyanin (APC) anti-CD3 APC-H7, and anti-CD8 Pacific Blue, and those for ICS were anti-CD3 APC-H7, anti-CD4 BD Horizon V450, anti-CD8 FITC, anti-granzyme B (GrzB) Alexa 700, anti-granzyme A (GrzA) PE (BD Biosciences, Cat #555349, 560176, 558207, 560345, 555366, 560213, 558904), and anti-perforin PerCP (Abcam, Cat #ab86319). Both analyses were performed with BD LSRII and […]™ Software (BD Biosciences), using a positive threshold of >1% CFSE^low for CFSE-proliferation except for ICS studies with threshold of >0.1% T cells expressing cytotoxin. The final value for each subject was derived after subtracting the result of each HIV^+ subject with the media control followed by subtraction with the average response of the media-control subtracted HIV^− subjects.

[2] = system: CD4+ or CD8+ T cells from HIV+ subjects; experiment: Intracellular cytotoxin staining (ICS), CD4+ or CD8+ T cells from HIV+ responders; settings: for cytotoxin and CD107a expression in CD4+ and CD8+ T cells (in words): p24 peptides
Experimental: Briefly, 1×10^6PBMCs (freshly isolated) are stimulated with 20 μg of peptides for 6 hours in a total volume of 200 μL in a 96-well plate in presence of Golgi transport inhibitor (37° C., 5% CO2). […] Cells were stained with the LIVE/DEAD® fixable yellow dye (Invitrogen, Eugene, Oreg.). […] The flow cytometry data is collected using BD LSRII and analyzed with the FACS DIVA software.
The cells were subsequently fixed and permeabilized with Cytofix/Cytoperm solution (BD Biosciences) before reaction with anti-cytotoxin antibodies. The antibodies consisted of anti-CD3 APC-H7, anti-CD4 BD Horizon V450, and anti-CD8 FITC followed by anti-GrzB Alexa 700 and anti-GrzA PE (all from BD Biosciences), and anti-perforin PerCP (Abcam, Boston, Mass.).
as §3
Flow cytometry (FACS) for measuring CFSE-proliferation and intracellular cytokine staining (ICS).
Both analyses were performed with BD LSRII and […]™ Software (BD Biosciences), using a positive threshold of >1% CFSE^low for CFSE-proliferation except for ICS studies with threshold of >0.1% T cells expressing cytotoxin.

[3] = system: CD3+CD4+ T cells from HIV+ subjects; experiment: CFSE-proliferation, CD3+CD4+ T cells from HIV+ subjects
Experimental: as §1, §2, §3, §4, §5

[4] = system: CD4+ T cells from HIV+ subjects; experiment: Intracellular cytotoxin staining (ICS), CD4+ T cells from HIV+ subjects; set-up: key to CD4^+ T-cell cytotoxins (4C): positive (+); negative (−) response; inhibitory (↓); not done (n); settings: HIV^+ subjects compared to HIV^− control group
Experimental: (§6) Briefly, 1×10^6PBMCs (freshly isolated) are stimulated with 20 μg of peptides for 6 hours in a total volume of 200 μL in a 96-well plate in presence of Golgi transport inhibitor (37° C., 5% CO2). The cells are processed as previously described (Horton et al. (2007)). Cells were stained with the LIVE/DEAD® fixable yellow dye (Invitrogen, Eugene, Oreg.). The monoclonal antibodies fluorochome-conjugated to human cytokines used are: APC-H7 to CD3 (clone SK7); BD Horizon V450 to CD4 (clone RPA-T4); Qdot to CD8 (clone 3B5); PE-cy7 to IFN-γ (clone 4S.B3); APC to IL-2 (clone MQ1-17H12) PerCP to perforin (clone B-D48); Alexa F1.700 to granzyme-B (clone GB11) and PE to granzyme-A (clone CB9). The flow cytometry data is collected using BD LSRII and analyzed with the FACS DIVA software.
(§7) The ICS analysis (Horton et al. (2007)) involved stimulating 0.5-1.0×10^6 freshly isolated PBMC for 6 h with the same peptide stimulant and culture conditions as the proliferation analysis in the presence of 1 μg/mL of Golgi transport inhibitor and monensin followed by labeling with LIVE/DEAD fixable yellow dye and then treatment with anti-CD16/CD32 antibody and T-cell phenotypic antibodies. The cells were subsequently fixed and permeabilized with Cytofix/Cytoperm solution (BD Biosciences) before reaction with anti-cytotoxin antibodies. The antibodies consisted of anti-CD3 APC-H7, anti-CD4 BD Horizon V450, and anti-CD8 FITC followed by anti-GrzB Alexa 700 and anti-GrzA PE (all from BD Biosciences), and anti-perforin PerCP (Abcam, Boston, Mass.).
as §3, §4, §5

[5] = system: CD8+ T cells from HIV+ subjects; experiment: Intracellular cytotoxin staining (ICS: perforin, GrzA, GrzB, CD107a), CD8+ T cells from HIV+ subjects; set-up: key to CD8^+ T-cell cytotoxins (8C): positive (+); negative (−) response; inhibitory (↓); not done (n)
Experimental: as §6, §7, §3, §4, §5

[6] = average positive values, responders to Fp9 or Fp14 peptide pools
[7] = responders to Fp9 or Fp14 peptide pools
[8] = responders/tested, small 9-13mer peptides, yr 4, responders to Fp9 or Fp14 pool via both proliferation and IFNγ
[9] = small 9-13mer peptides, yr 4, responders to Fp9 or Fp14 pool via both proliferation and IFNγ

Substance: FIV F3-3m1 (KKKDSGKWRMLIDFR)
- IFNγ (positive/total) (PBMC from HIV+ subjects): 0/9
- CD8^+ T Proliferation (positive/total) [1]: 1/5

Substance: FIV F3-3m2 (KKKDSGKWRMLIDFRV)
- IFNγ (positive/total) (PBMC from HIV+ subjects): 7/9
- CD8^+ T Proliferation (positive/total) [1]: 2/5

Substance: FIV F3-3m3 (KKKSGKWRMLVDFRV)
- IFNγ (positive/total) (PBMC from HIV+ subjects): 0/9
- CD8^+ T Proliferation (positive/total) [1]: 0/5

Substance: FIV F3-3m4 (KKKSTKWRKLIDFRV)
- IFNγ (positive/total) (PBMC from HIV+ subjects): 0/9
- CD8^+ T Proliferation (positive/total) [1]: 0/5

Substance: FIV F3-3m5 (KKKSGKWRKLIDFRV)
- IFNγ (positive/total) (PBMC from HIV+ subjects): 0/9
- CD8^+ T Proliferation (positive/total) [1]: 0/5

Substance: FIV F3-3m6 (KKKSTKWRMLIDFRV)
- IFNγ (positive/total) (PBMC from HIV+ subjects): 7/9
- CD8^+ T Proliferation (positive/total) [1]: 2/5

Substance: KKKDSTKWRKLVDFR [H3-3]
- IFNγ response of H3 responders retested (PBMC from HIV+ subjects; three H3 responders tested on or after the second year): 0/3

Substance: KLYLKQSLSI [Fp14-3/4f]
- (magnitude) IFNγ (PBMC from HIV+ subjects; [6]): low (low when the frequency of response is <15% CFSE or <125 SFU)
- IFNγ response of HIV+ subjects (in words) (PBMC from HIV+ subjects; p24 pools and peptides): low
- Responder Frequency in %, IFNγ (PBMC from HIV+ subjects; [7]): 40%
- (magnitude) CD8 Proliferation [1, 6]: high (high when >30 CSFE)
- CD8+ T-cell proliferation response of HIV+ subjects (in words) ([1]; p24 pools and peptides): high
- Responder Frequency in %, CD8 Proliferation [1, 7]: 100%
- CD8^+ T-cell Responder Frequency [1, 8]: 10/10
- CD8^+ T-cell Responder Frequency (%) [1, 9]: (100) ^d %
- cytotoxin and CD107a expression in CD4+ and CD8+ T cells (in words) [2]: high frequency of cytotoxin expression; also recorded: high cytotoxin and CD107a expression
- Cytotoxins [2, 7]: High Cytotoxins (The cytotoxin result is considered high when four or five subjects express one or more cytotoxins in the CD8^+ T cells)
- CD4+ T-cell proliferation response of HIV+ subjects (in words) [3]: high
- (magnitude) CD4 Proliferation [3, 6]: low (The average positive values are considered low when the frequency of response is <15% CFSE)
- Responder Frequency in %, CD4 Proliferation [3, 7]: 60%
- CD4^+ T-cell Responder Frequency [3, 8]: 6/10
- CD4^+ T-cell Responder Frequency (%) [3, 9]: (60) ^d %

Substance: KLYLKQSLSIANA [Fp14-4]
- CD4^+ T-cell cytotoxins (4C) [4]: +
- cytotoxin and CD107a expression in CD4+ and CD8+ T cells (in words) [2]: high frequency of cytotoxin expression
- cytotoxin expression / CTL-associated activity in CD8+ T cells (in words) [5]: highest frequency and levels
- CD8^+ T-cell cytotoxins (8C) ([5]; HIV^+ subjects compared to HIV^− control group): +
- HIV+ subjects whose CD8+ T cells responded with one or more cytotoxins ([5]; five HIV+ subjects, individual 13-15mer peptides): five
